Reference: paper PMC5874590, “The Occurrence of Flavonoids and Related Compounds in Cedrus brevifolia A. Henry ex Elwes & A. Henry Needles. Inhibitory Potencies on Lipoxygenase, Linoleic Acid Lipid Peroxidation and Antioxidant Activity” (Plants, 2017)

Key:
[1] = biological target: T1, soybean lipoxygenase (LOX) (Glycine max, UniProt P08170); experiment: UV absorbance at […] nm; assay type: biochemical; details: 0.1 mM compound; sodium linoleate; room temperature
T1 construct: gene LOX1.1; commercial native soybean enzyme (Sigma), catalogue number or type not given; 13-hydroperoxylinoleate product points to LOX-1
T1 sequence (P08170 1-839): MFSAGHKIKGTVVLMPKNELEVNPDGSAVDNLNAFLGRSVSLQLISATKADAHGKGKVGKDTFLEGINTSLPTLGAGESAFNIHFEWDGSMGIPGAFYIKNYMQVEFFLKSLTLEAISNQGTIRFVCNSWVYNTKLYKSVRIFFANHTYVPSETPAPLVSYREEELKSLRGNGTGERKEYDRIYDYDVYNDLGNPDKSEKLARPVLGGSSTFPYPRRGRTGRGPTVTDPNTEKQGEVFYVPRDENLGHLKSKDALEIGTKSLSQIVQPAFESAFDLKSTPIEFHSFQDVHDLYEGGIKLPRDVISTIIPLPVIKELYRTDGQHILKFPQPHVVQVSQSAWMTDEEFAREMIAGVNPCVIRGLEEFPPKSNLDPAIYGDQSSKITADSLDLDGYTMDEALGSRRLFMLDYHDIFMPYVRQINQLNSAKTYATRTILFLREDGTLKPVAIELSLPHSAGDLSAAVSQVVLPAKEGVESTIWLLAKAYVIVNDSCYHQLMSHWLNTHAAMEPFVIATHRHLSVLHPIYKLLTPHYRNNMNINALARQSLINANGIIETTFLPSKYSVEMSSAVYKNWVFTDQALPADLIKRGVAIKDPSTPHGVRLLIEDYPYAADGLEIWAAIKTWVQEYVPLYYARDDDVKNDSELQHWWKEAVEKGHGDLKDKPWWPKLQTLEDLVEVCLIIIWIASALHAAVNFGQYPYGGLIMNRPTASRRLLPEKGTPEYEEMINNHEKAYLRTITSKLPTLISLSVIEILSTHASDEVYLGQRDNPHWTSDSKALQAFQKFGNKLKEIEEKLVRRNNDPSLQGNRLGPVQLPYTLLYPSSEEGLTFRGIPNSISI

[2] = biological target: T1, soybean lipoxygenase (LOX); experiment: UV absorbance at […] nm; assay type: biochemical; details: room temperature; product 13-hydroperoxylinoleate

SMILES | % LOX ± SD Inhbt @ (0.1 mM) [1] | UV absorbance at 234 nm [2]
O=C(O[C@@H]1O[C@H](CO)[C@@H](O)[C@H](O)[C@H]1O)c1ccccc1 [compound 5, benzoate glucoside] | 29 ± 1.1% | 
O=C(O)/C=C/c1ccc(O)cc1 [compound 13, p-coumaric acid] | 18 ± 0.6% | 
O=C(O)/C=C/c1ccc(O[C@@H]2O[C@H](CO)[C@@H](O)[C@H](O)[C@H]2O)cc1 [compound 14, 4-O-β-D-glucopyranyl trans-p-coumaric acid] | 100 ± 2.5% | 
CC1=CC(=O)CC(C)(C)[C@@]1(O)/C=C/C(C)=C\CO[C@@H]1O[C@H](CO)[C@@H](O)[C@H](O)[C@H]1O [compound 16, abscisic alcohol glucoside] | 25±1.2% | 
C[C@@H]1O[C@@H](OC[C@H]2O[C@@H](Oc3c(-c4ccc(O)cc4)oc4cc(O)cc(O)c4c3=O)[C@H](O)[C@@H](O)[C@@H]2O)[C@H](O)[C@H](O)[C@H]1O [compound 17, kaempferol-3-O-β-rutinoside] | 46 ± 1.0% | 
O=C(/C=C/c1ccc(O)cc1)OC[C@H]1O[C@@H](Oc2c(-c3ccc(O)cc3)oc3cc(O)cc(O)c3c2=O)[C@H](O)[C@@H](O)[C@@H]1O [compound 19, tiliroside] | 8 ± 0.3% | 
CCCCC/C=C\C/C=C\CCCCCCCC(=O)O [sodium linoleate] |  | The transformation of sodium linoleate to 13-hydroperoxylinoleate sodium was measured spectrophotometrically
